This assay has as its system MDA-MB-231 tumors. The assay can be described thus: TUNEL assay for tumor apoptosis. It is filed as in vivo, nude mice. Conditions: tumors harvested 48 h after intratumoral injection, N=3 mice per condition. Here is the method:
Furthermore, we evaluated the therapeutic efficacy of Fe3O4@PLGA-DOX to the tumor. Tumor tissues of the orthotopic breast cancer mice were harvested after injection of Fe3O4@PLGA-DOX for 48 h and then sectioned for TUNEL apoptosis assay. […] Meanwhile, the fluorescence signals can also be observed in the tissue section.
MDA-MB-231 tumors on nude mice were harvested and encapsulated in Tissue-Tek® O.C.T. and then frozen. Tumor tissues embedded in were sectioned by cryostat with a thickness of 2 μm for each slice. tissue slices were treated with Click-iT™ Plus TUNEL Assay (Alexa Fluor™ 488 dye) kit for apoptosis detection. Fluorescence images of tumor tissues were captured by fluorescent microscopy. Alexa Fluor™ 488 dye was excited by 488 nm laser and the emission collecting window was 500-540 nm. The signal of DOX were excited by 488 nm laser and emission was collected at 580-630 nm.

In the case of `COc1cccc2c1C(=O)c1c(O)c3c(c(O)c1C2=O)C[C@@](O)(C(=O)CO)C[C@@H]3O[C@H]1C[C@H](N)[C@H](O)[C@H](C)O1` [DOX, doxorubicin], the “apoptosis in tumor section (TUNEL)” value is given as “exhibited apoptosis”.

(Values after US20210315476A1, “Depth-independent method for in-vivo drug release monitoring and quantification based on magnetic particle imaging” (The Board of Trustees of the Leland Stanford Junior …, priority 2018, published 2021).)
